Results on 30 compounds are retold here after patent US9708321B2, “Spiro-quinazolinone derivatives and their use as positive allosteric modulators of mGluR4” (Merck Patent GmbH, priority 2013, dated 2017).

Structures are written as SMILES.

This experiment concerns the target T1, hmGluR4 (Homo sapiens, UniProt Q14833).
T1 construct: host or cells: HEK293T
The experiment can be described thus: HEK-293 mGluR4 cells cAMP assay with EC20 L-Glutamate (HTRF). Format: cell-based. To be noted: positive allosteric activity at EC20 L-Glutamate, 10 μM Forskolin, HEK293T mGluR4 cells, cAMP HTRF; read-out: hrmGluR4/HEK293T-hmGluR4 (EC50). The essentials:
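PAM mode in mGluR4 HEK293T suspension cells, glutamine-starved overnight; 10 μM forskolin (final) with EC20 L-glutamate (2.3 μM), 2000 cells/well, 30 min at 37 °C. cAMP measured by two-step HTRF after 60 min at room temperature. Basal control EC20 glutamate; EC100 400 μM glutamate (2×).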

T1 sequence (Q14833 33-912): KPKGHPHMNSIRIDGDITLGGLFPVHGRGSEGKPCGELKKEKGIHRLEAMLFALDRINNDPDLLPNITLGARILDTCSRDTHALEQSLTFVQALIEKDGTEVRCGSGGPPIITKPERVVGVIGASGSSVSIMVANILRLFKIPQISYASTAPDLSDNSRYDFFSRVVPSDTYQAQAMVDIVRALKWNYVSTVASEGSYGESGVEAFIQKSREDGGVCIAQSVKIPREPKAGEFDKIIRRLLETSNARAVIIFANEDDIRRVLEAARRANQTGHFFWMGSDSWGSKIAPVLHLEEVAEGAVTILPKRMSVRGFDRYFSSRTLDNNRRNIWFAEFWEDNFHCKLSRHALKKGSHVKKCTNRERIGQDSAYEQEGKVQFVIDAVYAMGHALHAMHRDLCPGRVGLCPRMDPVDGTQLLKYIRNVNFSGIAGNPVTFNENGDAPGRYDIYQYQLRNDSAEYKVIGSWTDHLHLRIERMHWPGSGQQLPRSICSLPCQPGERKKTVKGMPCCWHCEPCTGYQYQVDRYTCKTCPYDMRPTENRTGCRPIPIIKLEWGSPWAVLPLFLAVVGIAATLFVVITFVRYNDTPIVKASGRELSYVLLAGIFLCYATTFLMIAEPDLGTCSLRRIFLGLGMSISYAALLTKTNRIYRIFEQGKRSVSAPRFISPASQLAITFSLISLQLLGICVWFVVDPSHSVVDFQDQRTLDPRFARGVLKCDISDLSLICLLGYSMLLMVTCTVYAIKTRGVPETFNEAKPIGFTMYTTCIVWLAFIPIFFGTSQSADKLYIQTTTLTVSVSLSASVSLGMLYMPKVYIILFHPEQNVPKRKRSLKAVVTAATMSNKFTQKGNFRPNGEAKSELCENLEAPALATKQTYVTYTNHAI

In the case of `COCCOc1ccc(N2C(=O)c3ccc(F)cc3NC23CN(Cc2ccccc2Cl)C3)cc1` [Compound 124, 1-(2-Chlorobenzyl)-7′-fluoro-3′-(4-(2-methoxyethoxyl)phenyl)-1′H-spiro[azetidine-3,2′-quinazolin]-4′(3′H)-one], the EC50 was in the range of 1 to 10 µM.
For `COc1ccc(N2C(=O)c3ccc(OC)cc3NC23CCN(Cc2ccc(Cl)s2)CC3)cc1` [Compound 59, 1-((5-Chlorothiophen-2-yl)methyl)-7′-methoxy-3′-(4-methoxyphenyl)-1′H-spiro[piperidine-4,2′-quinazolin]-4′(3′H)-one] the value was less than 1 µM; for `O=C1c2ccc(Br)cc2NC2(CCN(Cc3cccc4ncccc34)CC2)N1c1ccc(OC(F)(F)F)cc1` [Compound 57, 7′-Bromo-1-(quinolin-5-ylmethyl)-3′-(4-(trifluoromethoxy)phenyl)-1′H-spiro[piperidine-4,2′-quinazolin]-4′(3′H)-one], less than 1 µM; for `COc1ccc(N2C(=O)c3ccccc3NC23CN(Cc2cccc(C)c2)C3)cc1` [Compound 89, 3′-(4-Methoxyphenyl)-1-(3-methylbenzyl)-1′H-spiro[azetidine-3,2′-quinazolin]-4′(3′H)-one], 1 to 10 µM.
On to `COc1ccc(N2C(=O)c3ccccc3NC23CCN(Cc2cc(Cl)ccc2Cl)CC3)cc1` [Compound 13, 1-(2,5-Dichlorobenzyl)-3′-(4-methoxyphenyl)-1′H-spiro[piperidine-4,2′-quinazolin]-4′(3′H)-one], for which the EC50 was less than 1 µM.
On to `COc1ccc(N2C(=O)c3ccccc3NC23CCN(Cc2ccc(F)cc2)CC3)cc1` [Compound 114, 1-(4-Fluorobenzyl)-3′-(4-methoxyphenyl)-1′H-spiro[piperidine-4,2′-quinazolin]-4′(3′H)-one], for which the EC50 is 1 to 10 µM.
Regarding `COc1ccc(N2C(=O)c3ccccc3NC23CN(Cc2c(F)cc(F)cc2F)C3)cc1` [Compound 119, 3′-(4-Methoxyphenyl)-1-(2,4,6-trifluorobenzyl)-1′H-spiro[azetidine-3,2′-quinazolin]-4′(3′H)-one], the EC50 lay within 1 to 10 µM.
Take `COc1ccc(N2C(=O)c3ccccc3NC23CCN(Cc2ccccc2OC(F)(F)F)CC3)cc1` [Compound 67, 3′-(4-Methoxyphenyl)-1-(2-(trifluoromethoxy)benzyl)-1′H-spiro[piperidine-4,2′-quinazolin]-4′(3′H)-one]: the EC50 lay within 1 to 10 µM.
Take `COc1ccc(N2C(=O)c3ccc(-c4ccc(CN(C)C)o4)cc3NC23CCN(Cc2ccc(F)c(F)c2)CC3)cc1` [Compound 117, 1-(3,4-Difluorobenzyl)-7′-(5-((dimethylamino)methyl)furan-2-yl)-3′-(4-methoxyphenyl)-1′H-spiro[piperidine-4,2′-quinazolin]-4′(3′H)-one]: the EC50 lay in the range of 1 to 10 µM.
For `CCOC(=O)c1ccc2c(c1)NC1(CN(C(C)c3ccccc3Cl)C1)N(c1ccc(OC(F)(F)F)cc1)C2=O` (stereo not drawn) [Compound 30, Ethyl 1-(1-(2-chlorophenyl)ethyl)-4′-oxo-3′-(4-(trifluoromethoxy)phenyl)-3′,4′-dihydro-1′H-spiro[azetidine-3,2′-quinazoline]-7′-carboxylate] the value was less than 1 µM; for `CN(C)Cc1ccc(-c2ccc3c(c2)NC2(CCN(Cc4ccc(F)c(F)c4)CC2)N(c2ccc(OC(F)(F)F)cc2)C3=O)o1` [Compound 74, 1-(3,4-Difluorobenzyl)-7′-(5-((dimethylamino)methyl)furan-2-yl)-3′-(4-(trifluoromethoxy)phenyl)-1′H-spiro[piperidine-4,2′-quinazolin]-4′(3′H)-one], 1 to 10 µM.
Next, `O=C1c2ccc(C(F)(F)F)cc2NC2(CCN(Cc3cccc(Cl)c3)CC2)N1c1ccc(OC(F)(F)F)cc1` [Compound 10, 1-(3-Chlorobenzyl)-3′-(4-(trifluoromethoxy)phenyl)-7′-(trifluoromethyl)-1′H-spiro[piperidine-4,2′-quinazolin]-4′(3′H)-one]: less than 1 µM; `COc1ccc(N2C(=O)c3ccccc3NC23CN(Cc2cccc(F)c2)C3)cc1` [Compound 93, 1-(3-Fluorobenzyl)-3′-(4-methoxyphenyl)-1′H-spiro[azetidine-3,2′-quinazolin]-4′(3′H)-one]: 1 to 10 µM.
Consider `Cn1cccc1CN1CCC2(CC1)Nc1cc(Br)ccc1C(=O)N2c1ccc(OC(F)(F)F)cc1` [Compound 120, 7′-Bromo-1-((1-methyl-1H-pyrrol-2-yl)methyl)-3′-(4-(trifluoromethoxy)phenyl)-1′H-spiro[piperidine-4,2′-quinazolin]-4′(3′H)-one], for which the EC50 lay within 1 to 10 µM.
Turning to `O=C1c2ccc(Br)cc2NC2(CCN(Cc3ccccc3)CC2)N1c1ccc(Cl)cc1` [Compound 71, 1-Benzyl-7′-bromo-3′-(4-chlorophenyl)-1′H-spiro[piperidine-4,2′-quinazolin]-4′(3′H)-one], the EC50 fell in the range of 1 to 10 µM.
For `CSc1ccc(N2C(=O)c3ccc(Br)cc3NC23CCN(Cc2ccc(F)c(F)c2)CC3)cc1` [Compound 5, 7′-Bromo-1-(3,4-difluorobenzyl)-3′-(4-(methylthio)phenyl)-1′H-spiro[piperidine-4,2′-quinazolin]-4′(3′H)-one] the value was less than 1 µM.
Consider `COC(=O)c1ccc2c(c1)NC1(CCN(Cc3ccc(F)c(F)c3)CC1)N(c1ccc(OC(F)(F)F)cc1)C2=O` [Compound 36, Methyl 1-(3,4-difluorobenzyl)-4′-oxo-3′-(4-(trifluoromethoxy)phenyl)-3′,4′-dihydro-1′H-spiro[piperidine-4,2′-quinazoline]-7′-carboxylate], for which the EC50 was less than 1 µM.
Take `COc1ccc(N2C(=O)c3ccccc3NC23CN(Cc2ccc(Cl)cc2)C3)cc1` [Compound 85, 1-(4-Chlorobenzyl)-3′-(4-methoxyphenyl)-1′H-spiro[azetidine-3,2′-quinazolin]-4′(3′H)-one]: the EC50 is 1 to 10 µM.
Next, `COc1ccc(N2C(=O)c3ccccc3NC23CCC(Nc2ccccc2)CC3)cc1` (stereo not drawn) [Compound 44, 3′-(4-Methoxyphenyl)-4-(phenylamino)-1′H-spiro[cyclohexane-1,2′-quinazolin]-4′(3′H)-one]: less than 1 µM.
For `COc1ccc(N2C(=O)c3ccc(N4CCCCC4)cc3NC23CCN(Cc2ccc(F)c(F)c2)CC3)cc1` [Compound 83, 1-(3,4-Difluorobenzyl)-3′-(4-methoxyphenyl)-7′-(piperidin-1-yl)-1′H-spiro[piperidine-4,2′-quinazolin]-4′(3′H)-one] the value was 1 to 10 µM; for `COCCOc1ccc(N2C(=O)c3ccc(Br)cc3NC23CCN(Cc2ccc(F)c(F)c2)CC3)cc1` [Compound 37, 7′-bromo-1-(3,4-difluorobenzyl)-3′-(4-(2-methoxyethoxyl)phenyl)-1′H-spiro[piperidine-4,2′-quinazolin]-4′(3′H)-one], less than 1 µM; for `O=C1c2ccc(F)cc2NC2(CN(C(c3cccc(F)c3)C(F)(F)F)C2)N1c1ccc(OC(F)(F)F)cc1` (stereo not drawn) [Compound 53, 7′-Fluoro-1-(2,2,2-trifluoro-1-(3-fluorophenyl)ethyl)-3′-(4-(trifluoromethoxy)phenyl)-1′H-spiro[azetidine-3,2′-quinazolin]-4′(3′H)-one], less than 1 µM.
Next, `CCOC(=O)c1ccc2c(c1)NC1(CN(C(C)c3ccc(F)cc3)C1)N(c1ccc(OC(F)(F)F)cc1)C2=O` (stereo not drawn) [Compound 87, Ethyl 1-(1-(4-fluorophenyl)ethyl)-4′-oxo-3′-(4-(trifluoromethoxy)phenyl)-3′,4′-dihydro-1′H-spiro[azetidine-3,2′-quinazoline]-7′-carboxylate]: 1 to 10 µM; `N#Cc1cccc(CN2CCC3(CC2)Nc2cc(C(F)(F)F)ccc2C(=O)N3c2ccc(OC(F)(F)F)cc2)c1` [Compound 42, 3-((4′-Oxo-3′-(4-(trifluoromethoxy)phenyl)-7′-(trifluoromethyl)-3′,4′-dihydro-1′H-spiro[piperidine-4,2′-quinazolin]-1-yl)methyl)benzonitrile]: less than 1 µM.
As for `O=C1c2ccc(Br)cc2NC2(CCN(Cc3ccccc3OC(F)(F)F)CC2)N1c1ccc(OC(F)(F)F)cc1` [Compound 46, 7′-Bromo-1-(2-(trifluoromethoxy)benzyl)-3′-(4-(trifluoromethoxy)phenyl)-1′H-spiro[piperidine-4,2′-quinazolin]-4′(3′H)-one], the EC50 is less than 1 µM.
For `O=C1c2ccc(Br)cc2NC2(CCN(Cc3cccc4cnccc34)CC2)N1c1ccc(OC(F)(F)F)cc1` [Compound 27, 7′-Bromo-1-(isoquinolin-5-ylmethyl)-3′-(4-(trifluoromethoxy)phenyl)-1′H-spiro[piperidine-4,2′-quinazolin]-4′(3′H)-one] the value was less than 1 µM.
Next, `COc1ccc(N2C(=O)c3ccccc3NC23CN(Cc2cccc(Cl)c2)C3)cc1` [Compound 76, 1-(3-Chlorobenzyl)-3′-(4-methoxyphenyl)-1′H-spiro[azetidine-3,2′-quinazolin]-4′(3′H)-one]: 1 to 10 µM; `O=C(OCC1CC1)c1ccc2c(c1)NC1(CCN(Cc3ccc(F)c(F)c3)CC1)N(c1ccc(OC(F)(F)F)cc1)C2=O` [Compound 58, Cyclopropylmethyl 1-(3,4-difluorobenzyl)-4′-oxo-3′-(4-(trifluoromethoxy)phenyl)-3′,4′-dihydro-1′H-spiro[piperidine-4,2′-quinazoline]-7′-carboxylate]: less than 1 µM; `COc1ccc(N2C(=O)c3ccccc3NC23CCN(Cc2cccc(C(F)(F)F)c2)CC3)cc1` [Compound 96, 3′-(4-Methoxyphenyl)-1-(3-(trifluoromethyl)benzyl)-1′H-spiro[piperidine-4,2′-quinazolin]-4′(3′H)-one]: 1 to 10 µM.
On to `CCC(c1ccc(F)c(F)c1)N1CCC2(CC1)Nc1cc(Br)ccc1C(=O)N2c1ccc(Cl)cc1` (stereo not drawn) [Compound 33, 7′-Bromo-3′-(4-chlorophenyl)-1-(1-(3,4-difluorophenyl)propyl)-1′H-spiro[piperidine-4,2′-quinazolin]-4′(3′H)-one], for which the EC50 was less than 1 µM.
